Test results taken from PubChem BioAssay AID256 (DTP/NCI, 2004).
Values joined by “and” are separate entries in the source; they are usually repeats but may differ in a detail not shown here. Equal values may be shown once. Toxic doses and inconclusive results are not listed. Rule for the calls: active = survival T/C of 150% or more; inactive = T/C below 125% in these data.

Test system: CD2F1 mice, L1210 leukemia ip, survival T/C
Assay: NCI In Vivo Anticancer Drug Screen. Data for tumor model L1210 Leukemia (intraperitoneal) in CD2F1 (CDF1) mice
Details: higher = longer survival
How it was run: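 Read-out first: treated-group measurement over vehicle-control measurement, expressed as a ratio. Animals bore a transplanted tumor line and were dosed with compound or vehicle.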

[1] = endpoint: mean survival time, dose: 25.0 mg/kg/injection, schedule: Q01DX001 (ip), vehicle: saline
[2] = endpoint: mean survival time, dose: 50.0 mg/kg/injection, schedule: Q01DX001 (ip), vehicle: saline
[3] = endpoint: mean survival time, dose: 100.0 mg/kg/injection, schedule: Q04DX003 (ip), vehicle: saline with Tween-80
[4] = endpoint: mean survival time, dose: 200.0 mg/kg/injection, schedule: Q04DX003 (ip), vehicle: saline with Tween-80
[5] = endpoint: mean survival time, dose: 400.0 mg/kg/injection, schedule: Q04DX003 (ip), vehicle: saline with Tween-80
[6] = endpoint: mean survival time, dose: 100.0 mg/kg/injection, schedule: Q01DX009 (ip), vehicle: saline with Tween-80
[7] = endpoint: mean survival time, dose: 200.0 mg/kg/injection, schedule: Q01DX009 (ip), vehicle: saline with Tween-80
[8] = endpoint: mean survival time, dose: 400.0 mg/kg/injection, schedule: Q01DX009 (ip), vehicle: saline with Tween-80

Measured: T/C

O=P1(N2CC2)OCCCN1CCCl (stereo not given)
inactive: endpoint: mean survival time, dose: 3.8 mg/kg/injection, schedule: Q01DX001 (ip), vehicle: distilled water + Tween-80 102 % of control | endpoint: mean survival time, dose: 7.5 mg/kg/injection, schedule: Q01DX001 (ip), vehicle: distilled water + Tween-80 106 % of control | endpoint: mean survival time, dose: 15.0 mg/kg/injection, schedule: Q01DX001 (ip), vehicle: distilled water + Tween-80 107 % of control | endpoint: mean survival time, dose: 30.0 mg/kg/injection, schedule: Q01DX001 (ip), vehicle: distilled water + Tween-80 98 % of control | endpoint: mean survival time, dose: 62.5 mg/kg/injection, schedule: Q01DX001 (ip), vehicle: saline with Tween-80 110 % of control

CN(C)CCCN1c2ccccc2Sc2ccc(C(F)(F)F)cc21
inactive: endpoint: mean survival time, dose: 12.5 mg/kg/injection, schedule: Q01DX009 (ip), vehicle: saline 106 % of control | endpoint: mean survival time, dose: 12.5 mg/kg/injection, schedule: Q04DX003 (ip), vehicle: saline 100 % of control | endpoint: mean survival time, dose: 16.5 mg/kg/injection, schedule: Q01DX009 (ip), vehicle: saline with Tween-80 103 % of control | [1] 100 % of control | endpoint: mean survival time, dose: 25.0 mg/kg/injection, schedule: Q01DX009 (ip), vehicle: saline with Tween-80 88 % of control | endpoint: mean survival time, dose: 25.0 mg/kg/injection, schedule: Q01DX009 (ip), vehicle: saline 120 % of control | endpoint: mean survival time, dose: 25.0 mg/kg/injection, schedule: Q04DX003 (ip), vehicle: saline 115 % of control | endpoint: mean survival time, dose: 37.5 mg/kg/injection, schedule: Q01DX009 (ip), vehicle: saline with Tween-80 94 % of control | [2] 104 % of control | endpoint: mean survival time, dose: 50.0 mg/kg/injection, schedule: Q04DX003 (ip), vehicle: saline 118 % of control

O=C(NC1CCCC2CCCCC21)c1ccccc1 (stereo not given)
inactive: endpoint: mean survival time, dose: 100.0 mg/kg/injection, schedule: Q01DX001 (ip), vehicle: saline with Tween-80 90 % of control | endpoint: mean survival time, dose: 200.0 mg/kg/injection, schedule: Q01DX001 (ip), vehicle: saline with Tween-80 88 % of control | endpoint: mean survival time, dose: 400.0 mg/kg/injection, schedule: Q01DX001 (ip), vehicle: saline with Tween-80 90 % of control

O=[N+]([O-])O.[NH-]C1CCCCC1[NH-].[NH-]C1CCCCC1[NH-].[OH-].[OH-].[Pt+4].[Pt+4] (stereo not given)
inactive: endpoint: mean survival time, dose: 1.25 mg/kg/injection, schedule: Q04DX003 (ip), vehicle: water 110 % of control

C[Si](C)C(Cl)Cl
inactive: endpoint: mean survival time, dose: 75.0 mg/kg/injection, schedule: Q01DX009 (ip), vehicle: saline with Tween-80 96 % of control | endpoint: mean survival time, dose: 150.0 mg/kg/injection, schedule: Q01DX009 (ip), vehicle: saline with Tween-80 98 % of control | endpoint: mean survival time, dose: 300.0 mg/kg/injection, schedule: Q01DX009 (ip), vehicle: saline with Tween-80 102 % of control

COC(=O)/C(=C1/OC(=O)C(c2ccccc2)=C1O)c1ccccc1
inactive: endpoint: mean survival time, dose: 25.0 mg/kg/injection, schedule: Q04DX003 (ip), vehicle: saline with Tween-80 91 % of control | endpoint: mean survival time, dose: 50.0 mg/kg/injection, schedule: Q04DX003 (ip), vehicle: saline with Tween-80 100 % of control | [3] 105 % of control

COC(=O)C1(C)CCCC2(C)C1CCC13OCC(CC21)C1(C(C)C)OC31 (stereo not given)
inactive: [3] 101 % of control | [4] 100 % of control | [5] 95 % of control

COc1cccc(N2C(=O)CSC2=S)c1
inactive: [3] 107 % of control | [4] 96 % of control | [5] 106 % of control

CCC1OC(OC)C=CC1=O (stereo not given)
inactive: endpoint: median survival time, dose: 12.5 mg/kg/injection, schedule: Q01DX009 (ip), vehicle: saline 100 % of control | endpoint: median survival time, dose: 25.0 mg/kg/injection, schedule: Q01DX009 (ip), vehicle: saline 102 % of control | endpoint: median survival time, dose: 50.0 mg/kg/injection, schedule: Q01DX009 (ip), vehicle: saline 105 % of control | endpoint: median survival time, dose: 100.0 mg/kg/injection, schedule: Q01DX009 (ip), vehicle: saline 102 % of control

CCCCCCCCC1C(CCCCCCCC(=O)N2CCCC2)C2(Cl)C(Cl)=C(Cl)C1(Cl)C2(Cl)Cl (stereo not given)
inactive: endpoint: mean survival time, dose: 75.0 mg/kg/injection, schedule: Q01DX001 (ip), vehicle: saline 98 % of control | endpoint: mean survival time, dose: 150.0 mg/kg/injection, schedule: Q01DX001 (ip), vehicle: saline 104 % of control | endpoint: mean survival time, dose: 300.0 mg/kg/injection, schedule: Q01DX001 (ip), vehicle: saline 96 % of control

COc1ccc(OC)c(NC(=O)c2cccc([N+](=O)[O-])c2)c1
inactive: [6] 90 % of control and 103 % of control | [7] 92 % of control and 93 % of control | [8] 89 % of control and 95 % of control

O=C(O)/C=C\C(=O)Nc1ccccc1
inactive: [6] 93 % of control | [3] 109 % of control | [7] 96 % of control | [4] 101 % of control | [8] 96 % of control | [5] 97 % of control

CCOC(=O)Nc1cc(=O)cc(NC(=O)OCC)[nH]1
inactive: endpoint: mean survival time, dose: 75.0 mg/kg/injection, schedule: Q04DX003 (ip), vehicle: saline 98 % of control | endpoint: mean survival time, dose: 150.0 mg/kg/injection, schedule: Q04DX003 (ip), vehicle: saline 97 % of control | endpoint: mean survival time, dose: 300.0 mg/kg/injection, schedule: Q04DX003 (ip), vehicle: saline 97 % of control

CCOC(=O)NC12c3ccccc3C(c3ccccc31)C(C(=O)O)C2C(=O)O (stereo not given)
inactive: [6] 90 % of control | [7] 100 % of control | [8] 103 % of control

CCCCCCCC/C=C/CCCCCCCC1=NCCN1CCO
inactive: endpoint: mean survival time, dose: 100.0 mg/kg/injection, schedule: Q04DX002 (ip), vehicle: saline with Tween-80 95 % of control | endpoint: mean survival time, dose: 200.0 mg/kg/injection, schedule: Q04DX002 (ip), vehicle: saline with Tween-80 103 % of control | endpoint: mean survival time, dose: 400.0 mg/kg/injection, schedule: Q04DX002 (ip), vehicle: saline with Tween-80 100 % of control

CCC(C)Nc1ccc(N)cc1 (stereo not given)
inactive: endpoint: mean survival time, dose: 0.09 mg/kg/injection, schedule: Q01DX009 (ip), vehicle: Klucel (hydroxypropylcellulose) (HPC) 103 % of control | endpoint: mean survival time, dose: 0.18 mg/kg/injection, schedule: Q01DX009 (ip), vehicle: Klucel (hydroxypropylcellulose) (HPC) 94 % of control | endpoint: mean survival time, dose: 0.37 mg/kg/injection, schedule: Q01DX009 (ip), vehicle: Klucel (hydroxypropylcellulose) (HPC) 103 % of control | endpoint: mean survival time, dose: 0.75 mg/kg/injection, schedule: Q01DX009 (ip), vehicle: Klucel (hydroxypropylcellulose) (HPC) 103 % of control | endpoint: mean survival time, dose: 1.5 mg/kg/injection, schedule: Q01DX009 (ip), vehicle: Klucel (hydroxypropylcellulose) (HPC) 102 % of control | endpoint: mean survival time, dose: 3.0 mg/kg/injection, schedule: Q01DX009 (ip), vehicle: Klucel (hydroxypropylcellulose) (HPC) 94 % of control

COc1cc2cc3c(c(O)c2c(O)c1/C=C/C(C)C)C(=O)CC(C)(OC(C)=O)C3 (stereo not given)
inactive: endpoint: median survival time, dose: 1.25 mg/kg/injection, schedule: Q01DX009 (ip), vehicle: Klucel (hydroxypropylcellulose) (HPC) 105 % of control | endpoint: median survival time, dose: 2.5 mg/kg/injection, schedule: Q01DX009 (ip), vehicle: Klucel (hydroxypropylcellulose) (HPC) 102 % of control | endpoint: median survival time, dose: 5.0 mg/kg/injection, schedule: Q01DX009 (ip), vehicle: Klucel (hydroxypropylcellulose) (HPC) 113 % of control | endpoint: median survival time, dose: 10.0 mg/kg/injection, schedule: Q01DX009 (ip), vehicle: Klucel (hydroxypropylcellulose) (HPC) 116 % of control and 121 % of control | endpoint: median survival time, dose: 20.0 mg/kg/injection, schedule: Q01DX009 (ip), vehicle: Klucel (hydroxypropylcellulose) (HPC) 98 % of control and 105 % of control

O=c1c(Br)cnc2ccccn12
inactive: endpoint: mean survival time, dose: 12.5 mg/kg/injection, schedule: Q01DX001 (ip), vehicle: saline 107 % of control | [1] 98 % of control | [2] 102 % of control

CC1(c2ccccc2)C(C#N)C(=O)NC(=O)C1C#N (stereo not given)
inactive: [6] 94 % of control | [3] 102 % of control | [7] 93 % of control | [4] 91 % of control | [5] 91 % of control
